In patent publication US20230263710A1, “ORAL CARE AGENT” (OSAKA UNIVERSITY, priority 2020, published 2023):
Where two headings read alike, the source gives them in different places.

Test: Lewis acidity measuring method (1): reaction rate constant of reaction between CoTPP and oxygen in the presence of a Lewis acid
Format: physicochemical

For `CCCC[N+](CCCC)(CCCC)CCCC.F[P-](F)(F)(F)(F)F` [tetrabutylammonium hexafluorophosphate], the “kcat (reaction rate constant of reaction between CoTPP and oxygen in the presence of a Lewis acid)” value (shortened to “kcat”) was >0.1 M^−2 s^−1.

With benzalkonium chloride the “kcat” value (acetonitrile, saturated O2, room temperature) was 0.18 M^−2 s^−1.

With benzethonium chloride the “kcat” value was 0.24 M^−2 s^−1.
